Reference: patent US6043254A, “Indolinones having kinase-inhibiting activity” (Boehringer Ingelheim Pharma KG, priority 1998, dated 2000)

What was measured:
cycline D1/CDK4 = target: T1, cycline D1/CDK4 (Homo sapiens, UniProt P11802); assay: Test 1: inhibition of cycline/CDK enzyme in vitro activity; format: biochemical; conditions: GST-tagged pRB substrate; 45 minutes at 30° C.; 1% DMSO
T1 construct: His6; made in house; host or cells: High Five insect cells (BTI-TN-5B1-4), recombinant baculovirus with two promoters
From the text: Inhibition of cycline/CDK Enzyme in vitro Activity
High Five™ insect cells (BTI-TN-5B1-4) which had been infected with a high titre of recombinant baculovirus were used to produce active human cycline/CDK holoenzymes. By using a baculovirus vector which contained two promoters (polyhedrin enhancer promoter, P10 enhancer promoter), GST-tagged cyclines (e.g. cycline D1 or cycline D3) with the corresponding His6 -tagged CDK subunit (e.g. for CDK4 or CDK6) were expressed in the same cell. The active holoenzyme was isolated by affinity chromatography on glutathione sepharose. Recombinant GST-tagged pRB (aa 379-928) was produced in E. coli and purified by affinity chromatography on glutathione sepharose.
The substrates used for the kinase assays depended on the specific kinases. Iistone H1 (Sigma) was used as the substrate for cycline E/CDK2, cycline A/CDK2, cycline B/CDK1 and for v-cycline/CDK6. GST-tagged pRB (aa 379-928) was used as substrate for cycline D1/CDK4, cycline D3/CDK4, cycline D1/CDK6 and for cycline D3/CDK6.
Lysates of the insect cells infected with recombinant baculovirus or recombinant kinases (obtained from the lysates by purification) were incubated together with radiolabelled ATP in the presence of a suitable substrate with various concentrations of the inhibitor in a 1% DMSO solution (dimethyl sulphoxide) for 45 minutes at 30° C. The substrate proteins with associated radioactivity were precipitated with 5% TCA (trichloroacetic acid) in water-repellent PVDF multi-well microtitre plates (Millipore) or with 0.5% phosphoric acid solution on Whatman P81 filters. After the addition of scintillation liquid the radioactivity was measured in a Wallace 1450 Microbeta Liquid Scintillation Counter. For each concentration of the substance double measurements were carried out; IC50 values were calculated for the enzyme inhibition.

[1] = test system: SK-UT-1B cells (Leimyosarcoma tumour cell line); assay: Test 2: inhibition of the proliferation of cultivated human tumour cells (14C-thymidine incorporation); format: cell-based; conditions: Skut1B, 48 hours' incubation, then 14C-thymidine for a further 24 hours, read-out: Inhibiting the proliferation of SKUT-1B cells: IC50
Procedure: Inhibition of the Proliferation of Cultivated Human Tumour Cells
Cells of the Leimyosarcoma tumour cell line SK-UT-1B (obtained from the American Type Culture Collection (ATCC)) were cultivated in Minimum Essential Medium with non-essential amino acids (Gibco), supplemented with sodium pyruvate (1 mmol), glutamine (2 mmol) and 10% foetal calf serum (Gibco) and harvested during the log-growth phase. Then the SK-UT-1B cells were added to Cytostar® multi-well plates (Amersham) at a density of 4000 cells per well and incubated overnight in an incubator. Various concentrations of the compounds (dissolved in DMSO; final concentration: <1%) were added to the cells. After 48 hours' incubation ^14 C-thymidine (Amersham) was added to each well and incubation was continued for a further 24 hours. The quantity of ^14 C-thymidine incorporated into the tumour cells in the presence of the inhibitor and representing the number of cells in the S phase was measured in a Wallace 1450 Microbeta Liquid Scintillation Counter. IC50 values for the inhibition of proliferation (=inhibition of incorporated ^14 C-thymidine) were calculated, correcting for the background radiation. All the measurements were done twice.

[2] = test system: tumour (SK-UT-1B, or non-small cell lung tumour NCI-H460); assay: Test 3: in vivo effects on tumour-bearing nude mice; parameters: species or system nude mice (NMRI nu/nu); conditions: 100 mg/kg p.o. once a day for two weeks; male nude mice (n=9); significant, p<0.05
Procedure: In vivo Effects on Tumour-bearing Nude Mice
10^6 cells [SK-UT-1B, or non-small cell lung tumour NCI-H460 (obtained from ATCC)] in a volume of 0.1 ml were injected subcutaneously into male and/or female nude mice (NMRI nu/nu; 25-35 g; N=10-20); alternatively, small fragments of SK-UT-1B or NCI-H460 cell clumps were implanted subcutaneously. One to three weeks after the injection or implantation a kinase inhibitor was administered daily by oral route for a period of 2 to 4 weeks (by oesophageal tube). The size of the tumour was measured three times a week using a digital sliding gauge. The effect of a kinase inhibitor on the tumour growth was determined as a percentage inhibition compared with a control group treated with placebo.

T1 sequence (P11802 whole entry): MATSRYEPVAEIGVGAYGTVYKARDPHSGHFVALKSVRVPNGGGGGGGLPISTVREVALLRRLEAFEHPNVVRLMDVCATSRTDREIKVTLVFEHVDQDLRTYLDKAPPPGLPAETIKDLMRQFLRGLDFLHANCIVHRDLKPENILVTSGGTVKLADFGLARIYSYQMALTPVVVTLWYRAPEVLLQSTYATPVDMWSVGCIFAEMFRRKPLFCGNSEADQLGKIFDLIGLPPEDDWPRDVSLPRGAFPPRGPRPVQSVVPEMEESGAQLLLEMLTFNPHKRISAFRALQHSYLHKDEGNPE
T1 sequence (P24385 whole entry partner): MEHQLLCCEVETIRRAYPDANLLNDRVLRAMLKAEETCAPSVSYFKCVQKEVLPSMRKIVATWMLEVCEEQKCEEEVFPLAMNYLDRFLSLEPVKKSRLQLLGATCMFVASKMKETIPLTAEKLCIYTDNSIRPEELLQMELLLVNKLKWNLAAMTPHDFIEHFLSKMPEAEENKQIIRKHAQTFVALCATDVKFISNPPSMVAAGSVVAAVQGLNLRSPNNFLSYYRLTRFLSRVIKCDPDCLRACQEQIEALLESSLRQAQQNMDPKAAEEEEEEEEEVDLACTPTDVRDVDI

SMILES	IC50 (cycline D1/CDK4) [nM]	IC50 [1] [nM]	reduction in the tumour size [2]
O=C1Nc2ccc([N+](=O)[O-])cc2/C1=C(/Nc1ccc(-c2c[nH]cn2)cc1)c1ccccc1 [Example 2.5]	1000	340	around 65%
Cn1ccnc1-c1ccc(N/C(=C2\C(=O)Nc3ccc([N+](=O)[O-])cc32)c2ccccc2)cc1 [Example 3.12, 3-{(Z)-1-[4-(1-methyl-1H-imidazol-2-yl)anilino]-1-phenylmethylidene}-5-nitro-2-indolinone]	–	400	–
O=C1Nc2ccc([N+](=O)[O-])cc2/C1=C(/Nc1ccc(CN2CCCC2)cc1)c1ccccc1 [Example 3.18, 3-{(Z)-1-[4-((pyrrolidin-1-yl)methyl)anilino]-1-phenylmethylidene}-5-nitro-2-indolinone]	–	220	–
O=C1Nc2ccc([N+](=O)[O-])cc2/C1=C(/Nc1ccc(CCN2CCCC2)cc1)c1ccccc1 [Example 4.9, 3-{(Z)-1-[4-(2-(pyrrolidin-1-yl)ethyl)anilino]-1-phenylmethylidene}-5-nitro-2-indolin]	55	–	–

Now from value to compound, other results behind:

IC50 (cycline D1/CDK4) [nM]	IC50 [1] [nM]	SMILES	reduction in the tumour size [2]
–	530	O=C1Nc2ccc([N+](=O)[O-])cc2/C1=C(/Nc1ccc(CN2C(=O)CCC2=O)cc1)c1ccccc1 [Example 4.11, 3{(Z)-1-[4-((2,5-dioxo-pyrrolidin-1-yl)methyl)anilino]-1-phenylmethylidene}-5-nitro-2-indolinone]	–
–	1300	O=C1Nc2ccccc2/C1=C(/Nc1ccc(-c2cn3cccnc3n2)cc1)c1ccccc1 [Example 8.3, 3-{(Z)-1-[4-(imidazo[1,2-a]pyrimidin-2-yl)anilino]-1-phenylmethylidene}-2-indolinone]	–
150	–	O=C1Nc2ccc([N+](=O)[O-])cc2/C1=C(/Nc1ccc2c(c1)CCNC2)c1ccccc1 [Example 14.1, 3-{(Z)-1-[(1,2,3,4-tetrahydro-isoquinolin-6-yl)amino]-1-phenylmethylidene}-5-nitro-2-indolinone]	–
1400	–	CC(=O)N1CCc2cc(N/C(=C3\C(=O)Nc4ccc([N+](=O)[O-])cc43)c3ccccc3)ccc2C1 [Example 18.2, 3-{(Z)-1-[(2-acetyl-1,2,3,4-tetrahydro-isoquinolin-6-yl)-amino]-1-phenylmethylidene}-5-nitro-2-indolinone]	–
